# Data as given in patent US10945516B2, “Device mounted on mask pack, mask pack and kit comprising the same” (BIOSENSOR LABORATORIES INC., priority 2016, dated 2021).
# Columns and labels:
# [1] = type: in vitro ADME; details: pig, 30 min, 0.5 mM
# Protocol: In particular, first, frozen pig skin purchased from a slaughterhouse was left out at room temperature and thawed for 2 to 3 hours for preparation. Then, hair on the pig skin was removed, and the pig skin was stretched to have elasticity and fixed on a plate with pins. As an experimental group, the mask pack prepared according to an embodiment was applied to the pig skin for 30 minutes, and as a control group, a mask pack on which a RED battery was not mounted was applied to the pig skin for 30 minutes. 0.5 mM of Calcein (having a molecular weight of 622.55 g/mol, available from Sigma-Aldrich), which is a fluorescent agent, was used in a material-containing portion. Thereafter, the pig skin was prepared as samples and fixed for 24 hours by using a fixing solution of 4% paraformaldehyde (pH 7.4 at 4° C.). After the fixing, the samples were sufficiently washed with a PBS (pH 7.4) solution, and embedded with a Tissue-Tek O.C.T. compound (available from Sakura Finetek, USA) and rapidly cooled. The cooled samples were cut to a size of 7 um by using a cryomicrotome (Shandon Cryotome SME Cryostat, Shandon Scientific LTD, Cheshire, England). The cryomicrotomed tissue was washed with a PBS solution, mounted on a mounting solution, covered with a cover slip, and observed using a fluorescent microscope (Axio Observer Z1; Zeiss, Gottingen, Germany), and the results are shown in FIG. 11.
# [2] = Degree of absorption of vitamin C by mouse skin from patch (HPLC); type: in vitro ADME; details: 12.5 mg per patch, 6 hours, hairless mouse back skin
# Protocol: In particular, hairless mouse skin was used to measure a cumulative amount of vitamin C in skin of a mouse. As a control group, a preparation containing vitamin C in a general patch was used. As an experimental group, a preparation containing vitamin C in a patch using reverse electrodialysis was used. A cohesive hydrogel-type patch was prepared by using 3 w/v % Carbopol, and 0.5 mL of a vitamin C-containing cohesive hydrogel was loaded on the patch (an amount of vitamin C was 2.5 w/v %, and an amount of vitamin C loaded per patch was 12.5 mg). Back skin of a 5 week-old mouse (20 to 25 g) was taken, and the patch was mounted thereon. The patch was removed after being incubated for 6 hours, and the skin was carefully separated, quickly washed by using DDW and MeOH, and freeze-stored at −70° C. […] Amounts of vitamin C in the samples were measured by using high-performance liquid chromatography (HPLC) using a mixture of acetonitrile and 0.3 M of KH2PO4 (pH 4) at a ratio of 40:60 as a mobile phase, a Nucleosil NH2 (100 μm) column, a flow rate of 0.8 mL/min, an insertion volume of 20 μL, a UV wavelength of 264 nm, and a column temperature of 25° C., and the results are shown in FIG. 13.
amount of fluorescence that permeated into skin [1],amount permeated into skin [1],"increase of amount permeated into skin, reverse electrodialysis mask pack compared to passive diffusion [1]",locally remaining amounts of vitamin C of the epidermis layer and the dermis layer ([2]; control group general patch),increase of locally remaining amounts of vitamin C of the epidermis layer and the dermis layer relative to control group ([2]; reverse electrodialysis patch vs general patch),SMILES
0.47 ng/cm^2,about 0.05 ng/cm^2,about 7 times,,,O=C(O)CN(CC(=O)O)Cc1cc2c(cc1O)Oc1cc(O)c(CN(CC(=O)O)CC(=O)O)cc1C21OC(=O)c2ccccc21 [Calcein]
,,,small,about 3 times,O=C1O[C@H]([C@@H](O)CO)C(O)=C1O [vitamin C]
